Reference: ChEMBL document CHEMBL4706771, “Discovery of Orally Bioavailable Ligand Efficient Quinazolindiones as Potent and Selective Tankyrases Inhibitors” (ACS Med Chem Lett, 2021)
pIC50: −log10 of the molar value.

How the values were obtained:
[1] = Inhibition of Wnt/beta-catenin (unknown origin) expressed in human HEK293 cells expressing MSRII transfected with DNA-LF2K incubated for 24 hrs by luciferase reporter gene assay; details: HEK293, 24 h
[2] = target: T1, Poly [ADP-ribose] polymerase tankyrase-1 (Homo sapiens, UniProt O95271); experiment: Inhibition of human TNKS1 incubated for 1 to 2 hrs by fluorescence polarization assay
T1 sequence (O95271 whole entry): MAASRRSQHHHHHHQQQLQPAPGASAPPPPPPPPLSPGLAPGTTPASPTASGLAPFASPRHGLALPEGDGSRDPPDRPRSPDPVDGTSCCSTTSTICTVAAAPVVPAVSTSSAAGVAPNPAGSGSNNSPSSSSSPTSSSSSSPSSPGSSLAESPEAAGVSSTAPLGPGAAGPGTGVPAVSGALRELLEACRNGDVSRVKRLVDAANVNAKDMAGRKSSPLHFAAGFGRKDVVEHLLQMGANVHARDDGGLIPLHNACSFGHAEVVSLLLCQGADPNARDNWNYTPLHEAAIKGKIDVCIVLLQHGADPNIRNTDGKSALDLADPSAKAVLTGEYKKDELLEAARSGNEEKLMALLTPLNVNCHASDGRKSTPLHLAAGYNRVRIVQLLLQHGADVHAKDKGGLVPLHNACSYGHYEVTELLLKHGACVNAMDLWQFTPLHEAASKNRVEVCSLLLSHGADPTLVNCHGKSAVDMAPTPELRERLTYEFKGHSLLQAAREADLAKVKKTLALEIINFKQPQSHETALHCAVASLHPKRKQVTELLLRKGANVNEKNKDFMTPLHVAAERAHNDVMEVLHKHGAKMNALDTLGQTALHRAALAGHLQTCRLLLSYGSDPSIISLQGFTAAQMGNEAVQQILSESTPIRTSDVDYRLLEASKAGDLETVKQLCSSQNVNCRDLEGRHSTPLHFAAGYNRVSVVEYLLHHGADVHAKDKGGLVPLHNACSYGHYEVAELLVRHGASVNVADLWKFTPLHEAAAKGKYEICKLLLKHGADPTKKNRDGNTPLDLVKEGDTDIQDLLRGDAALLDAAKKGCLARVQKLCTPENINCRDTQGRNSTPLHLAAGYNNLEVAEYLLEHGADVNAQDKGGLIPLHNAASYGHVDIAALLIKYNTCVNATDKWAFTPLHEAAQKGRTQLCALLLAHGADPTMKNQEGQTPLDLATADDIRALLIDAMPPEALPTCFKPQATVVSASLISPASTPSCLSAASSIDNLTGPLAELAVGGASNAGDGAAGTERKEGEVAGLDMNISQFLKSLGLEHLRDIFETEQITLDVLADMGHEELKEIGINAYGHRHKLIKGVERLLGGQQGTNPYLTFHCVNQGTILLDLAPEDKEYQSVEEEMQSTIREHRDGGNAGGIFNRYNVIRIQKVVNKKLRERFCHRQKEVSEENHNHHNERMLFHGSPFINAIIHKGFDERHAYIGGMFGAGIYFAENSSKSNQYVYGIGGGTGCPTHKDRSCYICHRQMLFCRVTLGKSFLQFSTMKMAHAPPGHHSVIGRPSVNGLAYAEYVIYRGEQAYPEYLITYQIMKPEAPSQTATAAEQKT

[3] = Half life in Sprague-Dawley rat at 0.5 mg/kg, iv; type: ADME, organism-based; details: in vivo
[4] = Volume of distribution in Sprague-Dawley rat at 0.5 mg/kg, iv; type: ADME, organism-based; details: in vivo
[5] = Clearance in Sprague-Dawley rat at 0.5 mg/kg, iv; type: ADME, organism-based; details: in vivo
[6] = target: T2, Poly [ADP-ribose] polymerase tankyrase-2 (Homo sapiens, UniProt Q9H2K2); experiment: Inhibition of human TNKS2 incubated for 1 to 2 hrs by fluorescence polarization assay
T2 sequence (Q9H2K2 whole entry): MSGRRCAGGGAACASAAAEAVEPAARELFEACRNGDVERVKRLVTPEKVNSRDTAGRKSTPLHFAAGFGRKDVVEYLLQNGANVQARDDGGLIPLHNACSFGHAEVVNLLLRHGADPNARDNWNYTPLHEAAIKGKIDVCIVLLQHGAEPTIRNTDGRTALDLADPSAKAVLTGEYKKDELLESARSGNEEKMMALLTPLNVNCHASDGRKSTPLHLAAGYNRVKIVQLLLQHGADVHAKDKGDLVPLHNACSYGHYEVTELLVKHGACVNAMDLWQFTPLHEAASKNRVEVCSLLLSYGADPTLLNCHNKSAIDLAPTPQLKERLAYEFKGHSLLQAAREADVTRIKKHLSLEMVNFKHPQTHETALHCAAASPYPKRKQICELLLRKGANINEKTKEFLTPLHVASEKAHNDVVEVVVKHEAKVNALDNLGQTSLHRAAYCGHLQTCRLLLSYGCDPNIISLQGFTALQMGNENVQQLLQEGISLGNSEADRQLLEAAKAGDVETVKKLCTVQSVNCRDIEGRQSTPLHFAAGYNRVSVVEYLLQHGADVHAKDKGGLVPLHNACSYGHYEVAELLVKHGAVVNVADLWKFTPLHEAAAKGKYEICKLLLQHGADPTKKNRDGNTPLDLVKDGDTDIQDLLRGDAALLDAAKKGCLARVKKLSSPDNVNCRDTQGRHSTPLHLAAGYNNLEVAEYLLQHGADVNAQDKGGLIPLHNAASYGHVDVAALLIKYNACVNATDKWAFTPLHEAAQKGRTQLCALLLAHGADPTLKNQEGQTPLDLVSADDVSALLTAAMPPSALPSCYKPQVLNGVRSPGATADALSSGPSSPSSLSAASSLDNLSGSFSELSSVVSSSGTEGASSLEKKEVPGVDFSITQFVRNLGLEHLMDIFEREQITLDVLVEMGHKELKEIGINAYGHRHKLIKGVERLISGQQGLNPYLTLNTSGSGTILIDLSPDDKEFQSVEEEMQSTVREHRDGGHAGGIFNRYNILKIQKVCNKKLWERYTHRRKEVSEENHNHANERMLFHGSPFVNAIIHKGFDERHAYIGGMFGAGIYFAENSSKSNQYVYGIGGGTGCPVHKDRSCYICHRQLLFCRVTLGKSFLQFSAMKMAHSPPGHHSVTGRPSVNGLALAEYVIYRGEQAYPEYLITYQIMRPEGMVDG

[7] = Clearance in Sprague-Dawley rat at 5 mg/kg, po or 2 mg/kg, iv; type: ADME, organism-based; details: in vivo
[8] = Dose normalised AUC in Sprague-Dawley rat at 5 mg/kg, po; type: ADME, organism-based; details: in vivo
[9] = Volume of distribution in Sprague-Dawley rat at 5 mg/kg, po or 2 mg/kg, iv; type: ADME, organism-based; details: in vivo
[10] = Half life in Sprague-Dawley rat at 5 mg/kg, po or 2 mg/kg, iv; type: ADME, organism-based; details: in vivo
[11] = Oral bioavailability in Sprague-Dawley rat at 5 mg/kg; type: ADME, organism-based; details: in vivo
[12] = Dose normalised AUC in Sprague-Dawley rat at 10 mg/kg, po; type: ADME, organism-based; details: in vivo
[13] = Volume of distribution in Sprague-Dawley rat at 10 mg/kg, po or 0.5 mg/kg, iv; type: ADME, organism-based; details: in vivo
[14] = Half life in Sprague-Dawley rat at 10 mg/kg, po or 0.5 mg/kg, iv; type: ADME, organism-based; details: in vivo
[15] = Clearance in Sprague-Dawley rat at 10 mg/kg, po or 0.5 mg/kg, iv; type: ADME, organism-based; details: in vivo
[16] = Oral bioavailability in Sprague-Dawley rat at 10 mg/kg; type: ADME, organism-based; details: in vivo

| SMILES | pIC50 [1] | pIC50 [2] | also measured |
| --- | --- | --- | --- |
| COc1cccc2c1c(=O)n(C[C@H]1CC[C@H](C(=O)Nc3ccncc3)CC1)c(=O)n2Cc1cccc(C(F)(F)F)c1C#N | 7.90 | 8.40 | – |
| Cc1ccc(NC(=O)[C@H]2CC[C@H](Cn3c(=O)c4c(C)cccc4n(Cc4cccc(C(F)(F)F)c4C#N)c3=O)CC2)cn1 | 7.80 | 8.40 | – |
| Cc1ccc2c(c1C)c(=O)n(C[C@H]1CC[C@H](C(=O)O)CC1)c(=O)n2Cc1cccc(C(F)(F)F)c1C#N | 6.60 | 7.80 | – |
| Cc1cccc(Cn2c(=O)n(C[C@H]3CC[C@H](C(=O)Nc4ccncc4)CC3)c(=O)c3c(C)cccc32)c1C#N | 7.50 | 8.70 | – |
| N#Cc1ccccc1Cn1c(=O)n(C[C@H]2CC[C@H](C(=O)Nc3ccncc3)CC2)c(=O)c2ncccc21 | 7.10 | 6.90 | – |
| N#Cc1ccccc1Cn1c(=O)n(C[C@H]2CC[C@H](C(=O)Nc3ccncc3)CC2)c(=O)c2ccncc21 | 7.60 | 7.20 | – |
| Cc1c(F)ccc2c1c(=O)n(C[C@H]1CC[C@H](C(=O)Nc3ccncc3)CC1)c(=O)n2Cc1cccc(C(F)(F)F)c1C#N | 7.80 | 8.49 | – |
| Cc1cccc2c1c(=O)n(C[C@H]1CC[C@H](C(=O)Nc3ccnnc3)CC1)c(=O)n2Cc1cccc(C(F)(F)F)c1C#N | 7.50 | 8.60 | – |
| Cc1cccc2c1c(=O)n(C[C@H]1CC[C@H](C(=O)Nc3ccncc3)CC1)c(=O)n2Cc1cccc(Cl)c1C#N | 8.20 | 8.70 | half-life [3]: 37.2 min; Vd [4]: 2.1 L/kg; clearance [5]: 45.9 mL/min/kg |
| N#Cc1c(Cn2c(=O)n(C[C@H]3CC[C@H](C(=O)Nc4ccncc4)CC3)c(=O)c3ccccc32)cccc1C(F)(F)F | 7.90 | 8.70 | – |
| Cc1c(F)ccc2c1c(=O)n(C[C@H]1CC[C@H](C(=O)O)CC1)c(=O)n2Cc1cccc(C(F)(F)F)c1C#N | 7.70 | – | – |
| Cc1ccc2c(c1C)c(=O)n(C[C@H]1CC[C@H](C(=O)Nc3ccncc3)CC1)c(=O)n2Cc1cccc(C(F)(F)F)c1C#N | 7.60 | 8.20 | – |
| Cc1cccc2c1c(=O)n(C[C@H]1CC[C@H](C(=O)Nc3cnn(C)c3)CC1)c(=O)n2Cc1cccc(C(F)(F)F)c1C#N | 8.00 | 8.60 | – |
| N#Cc1ccccc1Cn1c(=O)n(C[C@H]2CC[C@H](C(=O)NCc3ccccc3)CC2)c(=O)c2ccccc21 | < 5.30 | 6.20 | pIC50 [6]: 5.10 |
| N#Cc1c(Cn2c(=O)n(C[C@H]3CC[C@H](C(=O)O)CC3)c(=O)c3ccccc32)cccc1C(F)(F)F | 7.20 | – | clearance [7]: 1.88 mL/min/kg; AUC/dose [8]: 1293 ng·h/mL; Vd [9]: 0.81 L/kg; half-life [10]: 312 min; bioavailability [11]: 14.5% |
| Cc1cccc2c1c(=O)n(C[C@H]1CC[C@H](C(=O)Nc3ccncc3)CC1)c(=O)n2Cc1cccc(C(F)(F)F)c1C#N | 7.40 | 8.49 | – |
| N#Cc1c(Cn2c(=O)n(C[C@H]3CC[C@H](C(=O)O)CC3)c(=O)c3c(F)cccc32)cccc1C(F)(F)F | 7.20 | 7.40 | – |
| N#Cc1c(Cn2c(=O)n(C[C@H]3CC[C@H](C(=O)O)CC3)c(=O)c3c(Cl)cccc32)cccc1C(F)(F)F | 7.20 | 7.80 | – |
| N#Cc1c(Cn2c(=O)n(C[C@H]3CC[C@H](C(=O)Nc4ccncc4)CC3)c(=O)c3c(F)cccc32)cccc1C(F)(F)F | 7.80 | 8.40 | – |
| Cc1cccc2c1c(=O)n(C[C@H]1CC[C@H](C(=O)Nc3ccncc3)CC1)c(=O)n2Cc1ccccc1C#N | 8.00 | 8.49 | – |
| COc1cccc2c1c(=O)n(C[C@H]1CC[C@H](C(=O)O)CC1)c(=O)n2Cc1cccc(C(F)(F)F)c1C#N | 7.70 | 8.09 | – |
| N#Cc1ccccc1Cn1c(=O)n(C[C@H]2CC[C@H](C(=O)Nc3ccncc3)CC2)c(=O)c2ccccc21 | 8.20 | 8.40 | AUC/dose [12]: 37.7 ng·h/mL; Vd [13]: 4.42 L/kg; half-life [14]: 43.2 min; clearance [15]: 91.2 mL/min/kg; bioavailability [16]: 3.6% |
| Cc1c(C(N)=O)ccc2c1c(=O)n(C[C@H]1CC[C@H](C(=O)Nc3ccncc3)CC1)c(=O)n2Cc1cccc(C(F)(F)F)c1C#N | 7.20 | 7.60 | – |
| N#Cc1c(Cn2c(=O)n(C[C@H]3CC[C@H](C(=O)Nc4ccncc4)CC3)c(=O)c3c(Cl)cccc32)cccc1C(F)(F)F | 8.20 | 8.49 | – |
| N#Cc1ccccc1Cn1c(=O)n(C[C@H]2CC[C@H](C(=O)Nc3ccncc3)CC2)c(=O)c2nc[nH]c21 | 6.60 | 7.00 | – |
